Reference: a compilation of properties of binary mixtures (doi:10.1021/acs.jced.5b00338)

Assay: xn = mol fraction of the nth substance listed
Settings: 100 kPa

O=C1OCCO1 + CC[n+]1ccn(C)c1.O=S(=O)([N-]S(=O)(=O)C(F)(F)F)C(F)(F)F
Settings | electrical conductivity [S/m] | viscosity [mPa·s]
293.15 K, x1 = 0.33 | 1.02 | –
293.15 K, x1 = 0.5263 | – | 15.1
293.15 K, x1 = 0.53 | 1.24 | –
293.15 K, x1 = 0.7476 | – | 8.1
293.15 K, x1 = 0.75 | 1.57 | –
293.15 K, x1 = 0.82 | 1.52 | –
293.15 K, x1 = 0.87 | 1.44 | –
293.15 K, x1 = 0.91 | 1.33 | –
293.15 K, x1 = 0.95 | 1.03 | –
303.15 K, x1 = 0.8163 | – | 4.1
303.15 K, x1 = 0.9467 | – | 3
313.15 K, x1 = 0.33 | 1.68 | –
313.15 K, x1 = 0.5263 | – | 9
313.15 K, x1 = 0.53 | 1.97 | –
313.15 K, x1 = 0.66 | 2.32 | –
313.15 K, x1 = 0.7476 | – | 4.6
313.15 K, x1 = 0.75 | 2.34 | –
313.15 K, x1 = 0.8163 | – | 3.4
313.15 K, x1 = 0.82 | 2.23 | –
313.15 K, x1 = 0.87 | 2.05 | –
313.15 K, x1 = 0.91 | 1.86 | –
313.15 K, x1 = 0.9467 | – | 2.4
313.15 K, x1 = 0.98 | 0.85 | –
313.15 K, x1 = 1 | – | 1.81
323.15 K, x1 = 0.5263 | – | 7.1
323.15 K, x1 = 0.7476 | – | 3.9
323.15 K, x1 = 0.8163 | – | 2.8
323.15 K, x1 = 0.9467 | – | 2.1
323.15 K, x1 = 1 | – | 1.56
333.15 K, x1 = 0.5263 | – | 5.8
333.15 K, x1 = 0.53 | 2.71 | –
333.15 K, x1 = 0.66 | 3.2 | –
333.15 K, x1 = 0.7476 | – | 3.3
333.15 K, x1 = 0.75 | 3.18 | –
333.15 K, x1 = 0.82 | 2.98 | –
333.15 K, x1 = 0.87 | 2.7 | –
333.15 K, x1 = 0.91 | 2.45 | –
333.15 K, x1 = 0.9467 | – | 1.84
333.15 K, x1 = 0.98 | 1.1 | –
333.15 K, x1 = 1 | – | 1.4
343.15 K, x1 = 0.7476 | – | 2.7
343.15 K, x1 = 0.8163 | – | 1.97
343.15 K, x1 = 0.9467 | – | 1.48
353.15 K, x1 = 0.33 | 3.29 | –
353.15 K, x1 = 0.5263 | – | 4
353.15 K, x1 = 0.53 | 4.04 | –
353.15 K, x1 = 0.7476 | – | 2.3
353.15 K, x1 = 0.75 | 4.43 | –
353.15 K, x1 = 0.8163 | – | 1.74
353.15 K, x1 = 0.87 | 3.59 | –
353.15 K, x1 = 0.91 | 3.01 | –
353.15 K, x1 = 0.95 | 2.29 | –
353.15 K, x1 = 1 | – | 1.07
363.15 K, x1 = 0.5263 | – | 3.4
363.15 K, x1 = 0.7476 | – | 2.03
363.15 K, x1 = 0.9467 | – | 1.2
363.15 K, x1 = 1 | – | 0.96
373.15 K, x1 = 0.7476 | – | 1.83
373.15 K, x1 = 0.8163 | – | 1.4
373.15 K, x1 = 0.9467 | – | 1.08
383.15 K, x1 = 0.5263 | – | 2.7
383.15 K, x1 = 0.8163 | – | 1.29
383.15 K, x1 = 0.9467 | – | 0.97
383.15 K, x1 = 1 | – | 0.74
393.15 K, x1 = 0.5263 | – | 2.4
393.15 K, x1 = 0.8163 | – | 1.19
393.15 K, x1 = 1 | – | 0.71

CC[n+]1ccn(C)c1.O=S(=O)([N-]S(=O)(=O)C(F)(F)F)C(F)(F)F + O=C1OCCO1
x2 = 0
Settings | electrical conductivity [S/m] | viscosity [mPa·s]
293.15 K | 0.73 | 41.6
298.15 K | 0.9 | 33.9
303.15 K | – | 27.3
313.15 K | 1.29 | 19.1
323.15 K | – | 14.4
333.15 K | 1.94 | 11.3
343.15 K | – | 8.3
353.15 K | 2.73 | 6.8
363.15 K | – | 5.6
373.15 K | – | 4.8
